Consider five molecules from PMC12673578 (Molecular Pharmaceutics, 2025).

Values joined by “and” are separate entries in the source; they are usually repeats but may differ in a detail not shown here. Identical values can stand only once. Like-named read-outs stand apart in the source and are kept apart here.

For one series, the system named is CYP3A. The following applies: ketoconazole coadministered, literature value, cited from earlier work.
The target in the next series is rCYP2C19 (Homo sapiens, UniProt P33261). Here is the method: (§1) The samples were analyzed using an LC-MS/MS system consisting of microflow LC and Xevo-TQ-XS MS systems (Waters, Milford, MA). An Acquity UPLC HSS T3 C18 column ([…]) equipped with a guard column (Vanguard precolumn, […], 2.1 × 5 mm) was used for the analysis. […] The mass spectrometer was operated in multiple reaction monitoring (MRM) and positive ionization modes with a cone voltage of 30 V using an electrospray ionization source.
(§2) The relative expression factor (REF) for the rCYPs and rCES was calculated by using eq . 2 REF=CYPorCEScontentinpooledHLM(permgprotein)/CYPorCES content in the recombinant system (per mg protein)
(§3) 3 Rateofmetabolism=Vmax×S/Km+S
(§4) The CLint, total for each isoform was then multiplied with the respective REF values, and fraction metabolized (f m) is calculated as shown in eq . 4 fm,CYPi=ScaledCLint,total,2−oxo−clopidogrelCYPi/ScaledactivityCYPall×100

A further series addresses rCYP1A2 (Homo sapiens, UniProt P05177). Here is the method:
as §1, §2, §3, §4

The next series concerns the target rCYP2B6 (Homo sapiens, UniProt P20813). Here is the method: as §1, §2, §3, §4
The target in another series is rCYP2C9 (Homo sapiens, UniProt P11712). As for the experimental part: as §1, §2, §3, §4
For series [1] the following is noted: following oral administration; literature value; cited from earlier work.
The conditions of series [2]: pooled fractions 0.5 mg/mL, clopidogrel 150 μM.
Protocol: The protein concentration was maintained at 0.5 mg/mL, and all incubations were conducted in triplicates in a water bath shaker at 37 °C with incubation volumes of 100 μL each. […] Samples were centrifuged at 10,000g for 5 min (4 °C), and the supernatants were collected and diluted 10-fold using a 75:25 (0.1% formic acid in ACN/0.1% formic acid in water) solution before being transferred to an LC-MS vial for analysis.
(§5) The samples were analyzed using an LC-MS/MS system consisting of microflow LC and Xevo-TQ-XS MS systems (Waters, Milford, MA). An Acquity UPLC HSS T3 C18 column (1.8 mm, 1 mm × 100 × 100 mm) equipped with a guard column (Vanguard precolumn, 1.8 mm, 2.1 × 5 mm) was used for the analysis. […] The mass spectrometer was operated in multiple reaction monitoring (MRM) and positive ionization modes with a cone voltage of 30 V using an electrospray ionization source.
Another series has as its target rCES1 (Homo sapiens, UniProt P23141). The conditions noted are these: rCES1 0.1 mg/mL, clopidogrel 0.9–240 μM, 30 min, 37 °C.
A further series concerns CES1 G143E variant. The conditions noted are these: second cited study; literature value; cited from earlier work.
Substrate in the series “not read”: COC(=O)[C@H](c1ccccc1Cl)N1CCc2sccc2C1
In words: not read. The conditions noted are these: 5 min, 37 °C.

The mark [3] stands for this setting: other: rCYP2C9, clopidogrel 0.3–160 μM.
Where [4] appears, read: other: rCYP2C19, clopidogrel 0.3–160 μM.
[5] abbreviates: other: rCYP1A2, clopidogrel 0.3–160 μM.

Chain of rCYP2B6 (P20813 whole entry): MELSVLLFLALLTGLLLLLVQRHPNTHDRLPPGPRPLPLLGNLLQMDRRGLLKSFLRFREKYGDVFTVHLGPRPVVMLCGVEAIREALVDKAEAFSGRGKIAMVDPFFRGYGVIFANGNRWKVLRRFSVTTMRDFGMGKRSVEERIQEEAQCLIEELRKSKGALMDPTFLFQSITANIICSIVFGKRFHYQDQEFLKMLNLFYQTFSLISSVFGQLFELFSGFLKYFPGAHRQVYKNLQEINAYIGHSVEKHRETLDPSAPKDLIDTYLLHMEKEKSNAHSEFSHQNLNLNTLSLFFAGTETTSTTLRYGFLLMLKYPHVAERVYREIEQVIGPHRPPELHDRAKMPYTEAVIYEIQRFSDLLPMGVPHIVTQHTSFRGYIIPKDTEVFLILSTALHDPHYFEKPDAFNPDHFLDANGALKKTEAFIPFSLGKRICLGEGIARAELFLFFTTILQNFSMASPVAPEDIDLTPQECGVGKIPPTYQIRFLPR
Chain of rCES1 (P23141 18-567): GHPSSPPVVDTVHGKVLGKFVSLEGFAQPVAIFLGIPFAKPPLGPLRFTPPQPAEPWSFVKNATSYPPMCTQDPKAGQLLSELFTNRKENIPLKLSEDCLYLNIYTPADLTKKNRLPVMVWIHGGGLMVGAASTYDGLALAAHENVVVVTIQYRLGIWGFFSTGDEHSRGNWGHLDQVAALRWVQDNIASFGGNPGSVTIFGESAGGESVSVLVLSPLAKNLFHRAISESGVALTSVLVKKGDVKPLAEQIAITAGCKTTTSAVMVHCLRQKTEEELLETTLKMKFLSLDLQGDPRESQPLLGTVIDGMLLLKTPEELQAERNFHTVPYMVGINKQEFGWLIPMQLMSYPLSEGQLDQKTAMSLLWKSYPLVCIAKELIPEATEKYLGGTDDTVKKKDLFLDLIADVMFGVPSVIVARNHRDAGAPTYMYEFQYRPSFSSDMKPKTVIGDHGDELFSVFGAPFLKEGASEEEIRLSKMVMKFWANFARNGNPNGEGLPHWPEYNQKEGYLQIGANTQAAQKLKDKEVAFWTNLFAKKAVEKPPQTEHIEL
Protocol for rCES1: as §5

As to `CC(=O)N1CCN(c2ccc(OCC3COC(Cn4ccnc4)(c4ccc(Cl)cc4Cl)O3)cc2)CC1` (centres unmarked) [Ketoconazole, ketoconazole], the “Reduction of AUC0–24 of clopidogrel active metabolite” value with CYP3A (after 75 mg clopidogrel maintenance dose (MD)) is 29%; in the series with CYP3A (after 300 mg clopidogrel loading dose (LD)), 22%. The “Decrease of C max of the active metabolite” value is recorded as 48% in the series on CYP3A (following LD) and 61% in the series on CYP3A (following MD).
Regarding `COC(=O)[C@H](c1ccccc1Cl)N1CCc2sccc2C1` [clopidogrel], the f m came out at 0.1% on rCYP2C19 (fraction of 2-oxo-clopidogrel formation by CYP2C19), 0.6% on rCYP1A2 (fraction of 2-oxo-clopidogrel formation by CYP1A2), 1.5% at rCYP2B6 and 40.3% at rCYP2C9 (fraction of 2-oxo-clopidogrel formation by CYP2C9). In addition, the “K m of 2-oxo-clopidogrel formation” value is 13.8 ± 5.5 µM and 13.8 µM at rCYP2C19 (rCYP2C19); 17.0 µM at rCYP1A2 (rCYP1A2); 20.6 µM at rCYP2C9 (rCYP2C9). The same molecule yielded a CLint on rCYP2B6 of 15.8 μL/mg protein/min. In addition, at rCYP2B6, the “CLint *REF” value was determined as 0.09 μL/mg protein/min. The “CLint (V max/K m)” value on rCYP2B6 (recombinant enzyme) came out at 1.8 μL/pmol P450/min. Further, the “Fraction of the drug absorbed” value in [1] is “approximately 50%”. Further, the “CCA formation rate normalized with CES1 content (pmol/min/pmol CES1) in HLS9 versus HLM” value in series [2] is “two-fold higher”. The “Rate of formation of 2-oxo-clopidogrel in HLM (pmol/min/mg protein) versus HLS9” value in series [2] is recorded as “two-fold higher”. For the same molecule, the “Rate of formation of CCA in HLM (pmol/min/mg protein) versus HLS9” value in [2] is given as “two-fold higher”. Also, the “K m for CCA formation” value at rCES1 is 14.92 ± 4.8 µM. In addition, in the series on CES1 G143E variant, the “Increase in platelet aggregation inhibition in G143E carriers compared to noncarriers” value is 19%.

B1: rCYP2C9 (Homo sapiens) (protein)
chain: MDSLVVLVLCLSCLLLLSLWRQSSGRGKLPPGPTPLPVIGNILQIGIKDISKSLTNLSKVYGPVFTLYFGLKPIVVLHGYEAVKEALIDLGEEFSGRGIFPLAERANRGFGIVFSNGKKWKEIRRFSLMTLRNFGMGKRSIEDRVQEEARCLVEELRKTKASPCDPTFILGCAPCNVICSIIFHKRFDYKDQQFLNLMEKLNENIKILSSPWIQICNNFSPIIDYFPGTHNKLLKNVAFMKSYILEKVKEHQESMDMNNPQDFIDCFLMKMEKEKHNQPSEFTIESLENTAVDLFGAGTETTSTTLRYALLLLLKHPEVTAKVQEEIERVIGRNRSPCMQDRSHMPYTDAVVHEVQRYIDLLPTSLPHAVTCDIKFRNYLIPKGTTILISLTSVLHDNKEFPNPEMFDPHHFLDEGGNFKKSKYFMPFSAGKRICVGEALAGMELFLFLTSILQNFNLKSLVDPKNLDTTPVVNGFASVPPFYQLCFIPV
Consider B1, for which, in the series “not read” (setting [3]), the kcat (commonly the maximal rate divided by the concentration of active sites) worked out at 0.387 s⁻¹ and the kcat/Km is reported as 1.1 μL/pmol P450/min.

B2: rCYP2C19 (Homo sapiens) (protein)
chain: MDPFVVLVLCLSCLLLLSIWRQSSGRGKLPPGPTPLPVIGNILQIDIKDVSKSLTNLSKIYGPVFTLYFGLERMVVLHGYEVVKEALIDLGEEFSGRGHFPLAERANRGFGIVFSNGKRWKEIRRFSLMTLRNFGMGKRSIEDRVQEEARCLVEELRKTKASPCDPTFILGCAPCNVICSIIFQKRFDYKDQQFLNLMEKLNENIRIVSTPWIQICNNFPTIIDYFPGTHNKLLKNLAFMESDILEKVKEHQESMDINNPRDFIDCFLIKMEKEKQNQQSEFTIENLVITAADLLGAGTETTSTTLRYALLLLLKHPEVTAKVQEEIERVIGRNRSPCMQDRGHMPYTDAVVHEVQRYIDLIPTSLPHAVTCDVKFRNYLIPKGTTILTSLTSVLHDNKEFPNPEMFDPRHFLDEGGNFKKSNYFMPFSAGKRICVGEGLARMELFLFLTFILQNFNLKSLIDPKDLDTTPVVNGFASVPPFYQLCFIPV
On to B2, for which, in the series “not read” (setting [4]), the kcat is 0.36 s⁻¹ and the kcat/Km came to 1.6 μL/pmol P450/min.

B3: rCYP1A2 (Homo sapiens) (protein)
chain: MALSQSVPFSATELLLASAIFCLVFWVLKGLRPRVPKGLKSPPEPWGWPLLGHVLTLGKNPHLALSRMSQRYGDVLQIRIGSTPVLVLSRLDTIRQALVRQGDDFKGRPDLYTSTLITDGQSLTFSTDSGPVWAARRRLAQNALNTFSIASDPASSSSCYLEEHVSKEAKALISRLQELMAGPGHFDPYNQVVVSVANVIGAMCFGQHFPESSDEMLSLVKNTHEFVETASSGNPLDFFPILRYLPNPALQRFKAFNQRFLWFLQKTVQEHYQDFDKNSVRDITGALFKHSKKGPRASGNLIPQEKIVNLVNDIFGAGFDTVTTAISWSLMYLVTKPEIQRKIQKELDTVIGRERRPRLSDRPQLPYLEAFILETFRHSSFLPFTIPHSTTRDTTLNGFYIPKKCCVFVNQWQVNHDPELWEDPSEFRPERFLTADGTAINKPLSEKMMLFGMGKRRCIGEVLAKWEIFLFLAILLQQLEFSVPPGVKVDLTPIYGLTMKHARCEHVQARLRFSIN
As for B3, in the series “not read” (setting [5]), the turnover number (kcat) was found to be 0.258 s⁻¹ and the kcat/Km amounted to 0.9 μL/pmol P450/min.
